In article PMC9969401, “Discovery of 2-(3-Benzamidopropanamido)thiazole-5-carboxylate Inhibitors of the Kinesin HSET (KIFC1) and the Development of Cellular Target Engagement Probes” (Journal of Medicinal Chemistry, 2023):

Biological target: T1, full-length HSET (FL HSET) (Homo sapiens, UniProt Q9BW19)
T1 construct: 5 nM full-length human N-terminal His-tag HSET; His-tag (N)
T1 sequence (Q9BW19 1-673): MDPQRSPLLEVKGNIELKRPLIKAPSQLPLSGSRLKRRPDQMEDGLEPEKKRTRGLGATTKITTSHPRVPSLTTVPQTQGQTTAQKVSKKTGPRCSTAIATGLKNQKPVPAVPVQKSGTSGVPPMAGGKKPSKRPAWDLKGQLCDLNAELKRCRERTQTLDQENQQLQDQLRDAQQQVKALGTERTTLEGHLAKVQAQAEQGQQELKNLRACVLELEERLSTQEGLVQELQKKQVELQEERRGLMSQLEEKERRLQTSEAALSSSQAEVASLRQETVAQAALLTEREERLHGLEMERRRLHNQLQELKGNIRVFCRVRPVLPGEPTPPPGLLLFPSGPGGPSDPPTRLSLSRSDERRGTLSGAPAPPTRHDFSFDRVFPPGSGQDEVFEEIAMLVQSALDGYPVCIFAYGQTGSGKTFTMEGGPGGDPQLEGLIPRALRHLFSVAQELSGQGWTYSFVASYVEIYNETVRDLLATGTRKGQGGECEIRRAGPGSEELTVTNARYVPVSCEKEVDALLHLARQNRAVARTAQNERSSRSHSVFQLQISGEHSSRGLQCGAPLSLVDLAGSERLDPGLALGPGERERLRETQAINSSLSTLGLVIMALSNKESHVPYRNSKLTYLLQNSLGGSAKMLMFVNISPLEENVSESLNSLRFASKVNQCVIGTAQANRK
Assay: Competitive binding fluorescence polarization assay (displacement of probe 37)
Settings: 400 nM FL HSET, 2.5 nM probe 37; read-out: IC50, displacement of FP probe 37 from FL HSET
Experimental: Steady-state fluorescence polarization binding assays were performed using the fluorescence-tagged probe 37. All assays were performed in a black ProxiPlate-384 Plus plate (PerkinElmer, 6008260) in a 10 μL volume in buffer containing 20 mM HEPES pH 7.5, 200 mM NaCl, 1 mM TCEP, 10 mM MgCl2, 0.1 mM Triton X-100, and 5% glycerol (v/v). Full-length human N-terminal His-tag HSET was used, with a final concentration of 2.5 nM 37 probe. The assays were sealed and incubated in the dark at 25 °C and then the FP signal was read on an EnVision multimode plate reader (PerkinElmer Life Sciences) using excitation at 620 nm and parallel and perpendicular emissions at 688 nm. All data processing was done using Prism (GraphPad Software).
For the competition assays, 100 nL of compound dissolved in DMSO or DMSO alone was added to create 11 pt concentration response curves between 100 and 0.001 μM final concentrations. This assay used 400 nM FL HSET, and the plate was read after 2 h of incubation in the dark at 25 °C. IC50 values were determined as for the ATPase assay using a four-parameter statistical logistic curve fit.

| IC50 [nM] | Structure (SMILES) |
| --- | --- |
| 400 ± 66 | Nc1ncnc2c1ncn2[C@@H]1O[C@H](COP(=O)(O)OP(=O)(O)O)[C@@H](O)[C@H]1O [ADP, adenosine diphosphate] |
| 436 ± 56 | Nc1ncnc2c1ncn2[C@@H]1O[C@H](COP(=O)(O)OP(=O)(O)OP(=O)(O)O)[C@@H](O)[C@H]1O [ATP, adenosine 5′-triphosphate] |
